# Reference: ChEMBL document CHEMBL1147899, “Raman, FT-IR, NMR spectroscopic data and antimicrobial activity of bis[micro2-(benzimidazol-2-yl)-2-ethanethiolato-N,S,S-chloro-palladium(II)] dimer, [(micro2-CH2CH2NHNCC6H4)PdCl]2.C2H5OH complex” (2007)
# Key:
# Type in all cases: functional
# Candida albicans = experiment: Antifungal activity against Candida albicans ATCC 10231 at 10 ug after 72 hrs by disk diffusion method; conditions: ATCC 10231, 72 h, read-out: IZ
# Kluyveromyces marxianus = experiment: Antifungal activity against Kluyveromyces fragilis NRRL 2415 at 10 ug after 72 hrs by disk diffusion method; conditions: NRRL 2415, 72 h, read-out: IZ
# Rhodotorula mucilaginosa = experiment: Antifungal activity against Rhodotorula rubra DSM 70403 at 10 ug after 72 hrs by disk diffusion method; conditions: DSM 70403, 72 h, read-out: IZ
# [1] = test system: Hanseniaspora guilliermondii; experiment: Antifungal activity against Hanseniaspora guilliermondii DSM 3432 at 10 ug after 72 hrs by disk diffusion method; conditions: DSM 3432, 72 h, read-out: IZ
# Debaryomyces hansenii = experiment: Antifungal activity against Debaryomyces hansenii DSM 70238 at 10 ug after 72 hrs by disk diffusion method; conditions: DSM 70238, 72 h, read-out: IZ
smiles,measurement,setting,value
Clc1ccccc1C(c1ccccc1)(c1ccccc1)n1ccnc1 [CLOTRIMAZOLE],zone of inhibition at 10 µg/disc,Candida albicans,15 mm
same,zone of inhibition at 10 µg/disc,Kluyveromyces marxianus,18 mm
same,zone of inhibition at 10 µg/disc,Rhodotorula mucilaginosa,16 mm
same,zone of inhibition at 10 µg/disc,[1],22 mm
same,zone of inhibition at 10 µg/disc,Debaryomyces hansenii,18 mm
